Measured values as given in patent publication EP1854806A1, “Thioglycosides as pharmaceutically active agents” (MPG Max-Planck-Gesellschaft zur Förderung der …, priority 2006, dated 2007).
Read-outs that look alike come from different tables or passages of the source.

How the values were obtained:
Type in all cases: cell-based
[1] = target: T1, human SGLT1 (Homo sapiens, UniProt P13866); test: SGLT activity (membrane translocation) by fluorescence resonance energy transfer (FRET); details: for transport through hSGLT1 (FRET): result in words; for fluorescence signal ratios: hSGLT1 in CHO cells, 10 µm thioglucoside, normalized to non-transfected CHO cells, ratio higher than 1 = transported, n=16
T1 construct: expressed in transfected cells; host or cells: CHO (Chinese hamster ovary) cells, stably transfected
T1 sequence (P13866 1-664): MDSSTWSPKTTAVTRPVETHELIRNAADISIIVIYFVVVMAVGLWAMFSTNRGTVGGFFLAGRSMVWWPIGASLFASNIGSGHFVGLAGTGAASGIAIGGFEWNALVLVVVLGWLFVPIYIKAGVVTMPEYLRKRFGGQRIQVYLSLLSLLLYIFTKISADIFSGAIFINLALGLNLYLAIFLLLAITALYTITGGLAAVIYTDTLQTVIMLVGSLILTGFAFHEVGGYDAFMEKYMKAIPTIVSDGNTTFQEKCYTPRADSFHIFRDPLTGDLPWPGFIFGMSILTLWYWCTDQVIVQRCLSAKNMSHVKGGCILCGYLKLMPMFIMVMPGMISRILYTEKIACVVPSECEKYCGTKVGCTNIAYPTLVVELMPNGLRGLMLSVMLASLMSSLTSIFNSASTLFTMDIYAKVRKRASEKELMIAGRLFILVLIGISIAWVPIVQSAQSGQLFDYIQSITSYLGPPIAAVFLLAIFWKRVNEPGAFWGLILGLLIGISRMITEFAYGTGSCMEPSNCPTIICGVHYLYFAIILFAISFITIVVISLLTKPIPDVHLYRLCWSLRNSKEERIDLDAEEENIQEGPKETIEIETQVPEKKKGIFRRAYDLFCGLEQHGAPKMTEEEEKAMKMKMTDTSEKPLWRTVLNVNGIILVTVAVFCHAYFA
Method: (§1) Stable transfected Chinese hamster ovary (CHO) cells that express human SGLT1 or human SGLT2 were seeded at a concentration of […] and maintained in culture for 2 days to allow the cells to form a confluent monolayer culture. For transport studies cells were seeded in 96-well microtiter scintiplates (PerkinElmer, Weisbaden, German). For fluorescence resonance energy transfer (FRET) analysis cells were seeded in flat-bottom, poly-D-lysine black-wall, clear bottom, 96-well plates (Becton Dickinson; Heidelberg, Germany).
(§2) SGLT activity, as indicated by membrane translocation, was assessed using fluorescence resonance energy transfer (FRET). Cells were incubated for 48 hours ar 37°C in a 5% CO2 atmosphere in growth medium. Cells were washed with 0.2 ml Dulbecco's phosphate-buffered saline (Invitrogen, Karlsruhe, Germany) and then incubated with 0.1 ml of a solution containing 5 µm CC2-DMPE and 0.02% pluronic acid in PBS. After incubation in the dark for 30 min at 25°C, cells were washed twice with 0.2 ml PBS. Afterwards, cells were incubated in the dark at 25°C for 30 minutes with 0.1 ml of a solution containing […] DiSBAC2(3). A t the end of the incubation period 1 mM of each thioglucoside was added and excited by 390 nm. Fluorescence emission was recorded at 460 and 580 nm. After a 20 second baseline reading, 0.1 ml of PBS containing 10 µM of each compound was added, and the fluorescence was calculated as the ratio F/F0 = [(A460/A580)/(I460/I580)] where A and I represent the reading after or before addition of each thioglucoside, respectively. For I, the readings form 2-5 seconds were averaged; and for A, readings from 3 seconds after the signal that had reached a plateau level (usually within 2-5 seconds) were also averaged. FRET values were expressed as relative fluorescence units (RFU).
(§3) The activity of the sodium-dependent D-glucose cotransport system was studied by changes in membrane potential induced by each of the eight thioglucosides (see Table 1) (10 µm). FRET values were normalized using the fluorescence signal obtained from non-transfected CHO cells.

[2] = target: T2, human SGLT2 (Homo sapiens, UniProt P31639); test: as above; details: for transport through hSGLT2 (FRET): result in words; for fluorescence ratios: hSGLT2 in CHO cells, 10 µm thioglucoside, normalized to non-transfected CHO cells, ratio higher than 1 = transported, n=16
T2 construct: expressed in transfected cells; host or cells: CHO (Chinese hamster ovary) cells, stably transfected
T2 sequence (P31639 1-672): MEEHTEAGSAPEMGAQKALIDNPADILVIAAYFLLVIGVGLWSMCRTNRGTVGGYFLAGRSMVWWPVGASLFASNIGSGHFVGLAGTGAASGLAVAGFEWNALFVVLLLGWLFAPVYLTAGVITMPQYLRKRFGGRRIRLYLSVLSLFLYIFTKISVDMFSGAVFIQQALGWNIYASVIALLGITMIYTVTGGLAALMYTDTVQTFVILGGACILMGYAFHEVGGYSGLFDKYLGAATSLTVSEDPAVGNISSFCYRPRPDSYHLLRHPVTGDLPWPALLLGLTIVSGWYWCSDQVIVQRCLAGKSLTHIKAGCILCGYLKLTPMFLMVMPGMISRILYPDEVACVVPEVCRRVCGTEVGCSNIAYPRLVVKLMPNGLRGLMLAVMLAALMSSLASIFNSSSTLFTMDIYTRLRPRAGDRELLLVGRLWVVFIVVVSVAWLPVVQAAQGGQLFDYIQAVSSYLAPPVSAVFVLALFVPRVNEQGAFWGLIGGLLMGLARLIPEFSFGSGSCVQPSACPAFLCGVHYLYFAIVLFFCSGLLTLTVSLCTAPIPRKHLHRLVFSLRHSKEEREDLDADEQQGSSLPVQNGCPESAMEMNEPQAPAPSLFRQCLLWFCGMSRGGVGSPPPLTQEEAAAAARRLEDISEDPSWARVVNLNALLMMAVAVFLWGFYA
Method: as §1, §2, §3

[3] = target: T1, human SGLT1; test: Inhibition of sodium-dependent D-glucose transport, [14C]AMG-uptake; details: for inhibitory effect, hSGLT1 compared with hSGLT2: [14C]AMG-uptake, 10µM, n=16, p<0.001, result in words; for Ki: apparent inhibitory constant, Dixon plot
Method: as §1
(§4) Sodium-dependent D-glucose transport was determined by means of α-methyl [^14C]D-glucopyranoside ([^14C]AMG, spec. Radioactivity 300 mCi/mmol) purchased from NEN (Bad Homburg, Germany). For the purpose of this study, Krebs-Ringer-Henseleit (KRH) solution containing 120 mM NaCl, 4.7 mM KCI, 1.2 mM MgCl2, 2.2 mM CaCl2, 10 mM Hepes (pH 7.4 with Tris) was used to assess sodium-dependent D-glucose transport. For sodium free conditions, KRH solution containing 120 mM N-methyl-glucamine (NMG) instead of NaCl (Na^+) was used to assess sodium-independent D-glucose transport. All chemicals were purchased from Sigma (Deisenhof, Germany).
(§5) Briefly, cells were rinsed three times with 200 µl KRH-Na^+ or KRH-NMG. Then, 100 µl per well of transport buffer containing KRH-NA^+ or KRH-NMG plus [^14C]AMG (0.1 µCi/µl) were added and incubated for 1 hour. […] Then, the cells were solubilized by adding 100 µl of ATPlite substrate solution (PerkinElmer, Boston, USA) and luminescence ATP detection was assessed using a MicroBeta Trilux (PerkinElmer). A standard curve was used to determine the amount of ATP as mg of protein. After 24 hours the microtiter plate was taken for scintillation counting of radioactive [^14C]AMG-uptake using a MicroBeta Trilux (PerkinElmer). Subsequently, the mean counts per minute (cpm) were calculated and converted to […] (pmol). The obtained radioactive counts were expressed as pmol/mg/hour. Sodium-dependent [14C]AMG-uptake was calculated by subtracting uptake under sodium-free conditions from the uptake obtained in the presence of sodium.
(§6) The inhibitory effect on SGLT transport was also analyzed by IC50 values. Dixon plot analysis was used for both estimation of the inhibition constant (Ki) and for identification of the mechanism of enzyme inhibition. Ki was determined by the point of intersection of two different substrate concentrations. Plots of the reciprocal of rate of metabolite formation (1/Rate) versus inhibitor concentration at each substrate concentration were prepared.

[4] = target: T2, human SGLT2; test: as above; details: hSGLT2; for Ki: apparent inhibitory constant, Dixon plot
Method: as §1, §4, §5, §6

SMILES	transport through hSGLT1 (FRET) [1]	transport through hSGLT2 (FRET) [2]	inhibitory effect, hSGLT1 compared with hSGLT2 [3]	Ki ([3]; hSGLT1, read-out: Ki)	IC50 ([3]; hSGLT1, read-out: IC50)	IC50 [4]	Ki [4]	IC50 [3]	Ki ([3]; Ki, hSGLT1)	fluorescence signal ratios [1]	fluorescence ratios [2]	inhibition at 10 µM ([3]; read-out: [14C]AMG-uptake, % inhibition)	inhibition at 10 µM ([4]; 10µM, n=16)
C/C(=C\CC/C(C)=C/CS[C@@H]1O[C@H](CO)[C@@H](O)[C@H](O)[C@H]1O)CO [Thioglucoside 1, 8-Hydroxygeranol-1'-thio-β-D-glucopyranoside]	not transported	not transported	stronger for hSGLT1	100 nM	35 µM	12 µM	30 nM						
OCc1ccccc1S[C@@H]1O[C@H](CO)[C@@H](O)[C@H](O)[C@H]1O [Thioglucoside 2, 2-Hydroxymethyl-phenyl-1'-thio-β-D-glucopyranoside]	not transported	not transported	stronger for hSGLT1			9 µM	10 nM	41 µM	383000 nM				
OC[C@H]1O[C@@H](Sc2ccccc2)[C@H](O)[C@@H](O)[C@@H]1O [Thioglucoside 3, Phenyl-1'-thio-β-D-glucopyranoside]	significantly transported	significantly transported	stronger for hSGLT1			16 µM	135000 nM	4 µM	80 nM	1.15	1.21		
Cc1ccccc1S[C@@H]1O[C@H](CO)[C@@H](O)[C@H](O)[C@H]1O [Thioglucoside 4, o-Tolyl-1'-thio-β-D-glucopyranoside]	significantly transported	significantly transported	stronger for hSGLT1			18 µM	132000 nM	30 µM	280 nM		1.63	> 70%	
OCc1cccc(S[C@@H]2O[C@H](CO)[C@@H](O)[C@H](O)[C@H]2O)c1 [Thioglucoside 5, 3-Hydroxymethyl-phenyl-1'-thio-β-D-glucopyranoside]						12 µM	20 nM	47 µM	120 nM	1.01			
OCc1ccccc1S[C@@H]1O[C@H](CO)[C@H](O)[C@H](O)[C@H]1O [Thioglucoside 6, 2-Hydroxymethyl-phenyl-1'-thio-β-D-galactopyranoside]						15 µM	10 nM	120 µM	140000 nM		1.32		
Cc1ccc(S[C@@H]2O[C@H](CO)[C@@H](O)[C@H](O)[C@H]2O)cc1 [Thioglucoside 7, p-Tolyl-1'-thio-β-D-glucopyranoside]	significantly transported	significantly transported				32 µM	175000 nM	52 µM	23000 nM	2.64	4.22		> 70%
Cc1cccc(S[C@@H]2O[C@H](CO)[C@@H](O)[C@H](O)[C@H]2O)c1 [Thioglucoside 8, m-Tolyl-1'-thio-β-D-glucopyranoside]	not transported	not transported				11 µM	20 nM	40 µM	170 nM				
O=C(CCc1ccc(O)cc1)c1c(O)cc(O)cc1O[C@@H]1O[C@H](CO)[C@@H](O)[C@H](O)[C@H]1O [phlorizin, reference compound]		not transported											
